This passage reports MIC and PAE results from patent US20220213047A1, “CARBONIC ANHYDRASE INHIBITORS FOR TREATMENT OF NEISSERIA GONORRHOEAE INFECTION” (Purdue Research Foundation, priority 2021, published 2022).

The test system of assay [1] is N. gonorrhoeae. Nature of the assay: MIC against N. gonorrhoeae clinical isolates, normal and CO2 conditions. The format is cell-based. As to conditions: Neisseria gonorrhoeae. As to the method:
(§1) These tests were performed in normal culture conditions with standard CO2 levels and in CO2 (5% in incubator) conditions.

The subject of assay [2] is N. gonorrhoeae. The assay is described as follows: Post-antibiotic effect (PAE). The format is cell-based. As to conditions: after exposure to 10×MIC for 1 hour.
For the next assay, the system named is ATCC strain 700825. The assay is described as follows: MICs against ATCC strain 700825. The format is cell-based, N. gonorrhoeae. As to conditions: Neisseria gonorrhoeae. Here is the method: as §1
The mark [3] stands for this setting: N. gonorrhoeae 178, Non CO2 environment.
The mark [4] stands for this setting: N. gonorrhoeae 178, normal growth environment (with CO2).
The mark [5] stands for this setting: N. gonorrhoeae 181, Non CO2 environment.
The mark [6] stands for this setting: N. gonorrhoeae 181, normal growth environment (with CO2).
[7] abbreviates: N. gonorrhoeae 194, Non CO2 environment.
[8] abbreviates: N. gonorrhoeae 194, normal growth environment (with CO2).

SMILES strings stand for the structures. In brackets after ≈: the same amount, converted by molar mass.

In general, MIC refers to the least concentration at which growth counts as inhibited. High values mean weaker potency, low ones greater potency. With `CC[C@H]1OC(=O)[C@H](C)[C@@H](O[C@H]2C[C@@](C)(OC)[C@@H](O)[C@H](C)O2)[C@H](C)[C@@H](O[C@@H]2O[C@H](C)C[C@H](N(C)C)[C@H]2O)[C@](C)(O)C[C@@H](C)CN(C)[C@H](C)[C@@H](O)[C@]1(C)O` [Azithromycin], the MIC against N. gonorrhoeae [1] (setting [3]) was 0.25 µg/mL (≈ 0.334 µM); with N. gonorrhoeae [1] (setting [4]), 1 µg/mL (≈ 1.34 µM); in the assay with N. gonorrhoeae [1] (setting [5]), > 128 µg/mL; in the assay with N. gonorrhoeae [1] (setting [6]) it was > 128 µg/mL; against N. gonorrhoeae [1] (setting [7]), 0.25 µg/mL (≈ 0.334 µM); in the assay with N. gonorrhoeae [1] (setting [8]) it was 0.5 µg/mL (≈ 0.668 µM). The PAE in the assay on N. gonorrhoeae [2] (Ng 181), with N. gonorrhoeae [2] (Ng 186), in the assay with N. gonorrhoeae [2] (Ng 194), in the assay with N. gonorrhoeae [2] (Ng 198) and in the assay on N. gonorrhoeae [2] (clinical isolates of N. gonorrhoeae) was 8 h throughout.

In the case of `NS(=O)(=O)c1nnc(NC(=O)CN2CCCC2)s1` [CAI 0037], the minimal inhibitory concentration (MIC) against N. gonorrhoeae [1] (setting [3]), against N. gonorrhoeae [1] (setting [4]), against N. gonorrhoeae [1] (setting [5]), in the assay on N. gonorrhoeae [1] (setting [6]), in the assay on N. gonorrhoeae [1] (setting [7]) and in the assay with N. gonorrhoeae [1] (setting [8]) was > 64 µg/mL each time.

Consider `CCCCCCC(=O)Nc1nnc(S(N)(=O)=O)s1` [CAI 0027], for which the MIC with N. gonorrhoeae [1] (setting [3]) was 2 µg/mL (≈ 6.84 µM); in the assay with N. gonorrhoeae [1] (setting [4]) it was 32 µg/mL (≈ 109 µM); in the assay on N. gonorrhoeae [1] (setting [5]) it was 2 µg/mL (≈ 6.84 µM); in the assay on N. gonorrhoeae [1] (setting [6]), 64 µg/mL (≈ 219 µM); in the assay with N. gonorrhoeae [1] (setting [7]), 1 µg/mL (≈ 3.42 µM); with N. gonorrhoeae [1] (setting [8]), 64 µg/mL (≈ 219 µM).

For the molecule `NS(=O)(=O)c1nnc(NC(=O)CN2CCOCC2)s1` [CAI 0031], the MIC in the assay with N. gonorrhoeae [1] (setting [3]) is 32 µg/mL (≈ 104 µM); in the assay on N. gonorrhoeae [1] (setting [4]), 64 µg/mL (≈ 208 µM); against N. gonorrhoeae [1] (setting [5]) it was > 64 µg/mL; against N. gonorrhoeae [1] (setting [6]) it was > 64 µg/mL; against N. gonorrhoeae [1] (setting [7]), 64 µg/mL (≈ 208 µM); against N. gonorrhoeae [1] (setting [8]), > 64 µg/mL. The MIC with ATCC strain 700825 (ATCC700825, In CO2) came out at 128 µg/mL (≈ 416 µM); against ATCC strain 700825 (ATCC700825, In air), 32 µg/mL (≈ 104 µM).

With `CCN[C@H]1C[C@H](C)S(=O)(=O)c2sc(S(N)(=O)=O)cc21` [Dorzolamide], the MIC is 32 µg/mL (≈ 98.6 µM) in the assay on N. gonorrhoeae [1] (setting [3]); > 64 µg/mL against N. gonorrhoeae [1] (setting [4]); > 64 µg/mL against N. gonorrhoeae [1] (setting [5]); > 64 µg/mL in the assay on N. gonorrhoeae [1] (setting [6]); > 64 µg/mL with N. gonorrhoeae [1] (setting [7]); > 64 µg/mL against N. gonorrhoeae [1] (setting [8]).

With `NS(=O)(=O)c1nnc(NC(=O)CN2CCCCC2)s1` [CAI 0035], the MIC is 64 µg/mL (≈ 210 µM) in the assay with N. gonorrhoeae [1] (setting [3]); > 64 µg/mL against N. gonorrhoeae [1] (setting [4]); > 64 µg/mL in the assay with N. gonorrhoeae [1] (setting [5]); > 64 µg/mL against N. gonorrhoeae [1] (setting [6]); 64 µg/mL (≈ 210 µM) in the assay with N. gonorrhoeae [1] (setting [7]); > 64 µg/mL in the assay with N. gonorrhoeae [1] (setting [8]).

As for `NS(=O)(=O)c1nnc(NC(=O)c2cccc(C(F)(F)F)c2)s1` [CAI 0038], the MIC is 1 µg/mL (≈ 2.84 µM) with N. gonorrhoeae [1] (setting [3]); > 64 µg/mL in the assay on N. gonorrhoeae [1] (setting [4]); 4 µg/mL (≈ 11.4 µM) against N. gonorrhoeae [1] (setting [5]); 64 µg/mL (≈ 182 µM) against N. gonorrhoeae [1] (setting [6]); 2 µg/mL (≈ 5.68 µM) in the assay with N. gonorrhoeae [1] (setting [7]); > 64 µg/mL with N. gonorrhoeae [1] (setting [8]).

As for `CN1CCN(CC(=O)Nc2nnc(S(N)(=O)=O)s2)CC1` [CAI 0036], the MIC is 64 µg/mL (≈ 200 µM) in the assay on N. gonorrhoeae [1] (setting [3]); > 64 µg/mL with N. gonorrhoeae [1] (setting [4]); > 64 µg/mL with N. gonorrhoeae [1] (setting [5]); > 64 µg/mL against N. gonorrhoeae [1] (setting [6]); > 64 µg/mL with N. gonorrhoeae [1] (setting [7]); > 64 µg/mL against N. gonorrhoeae [1] (setting [8]).

Regarding `CC(=O)Nc1ccc(S(N)(=O)=O)cc1` [CAI 0030], the MIC against N. gonorrhoeae [1] (setting [3]) was 8 µg/mL (≈ 37.3 µM); in the assay with N. gonorrhoeae [1] (setting [4]) it was > 64 µg/mL; in the assay on N. gonorrhoeae [1] (setting [5]), 32 µg/mL (≈ 149 µM); against N. gonorrhoeae [1] (setting [6]), > 64 µg/mL; against N. gonorrhoeae [1] (setting [7]), 16 µg/mL (≈ 74.7 µM); against N. gonorrhoeae [1] (setting [8]) it was > 64 µg/mL.

For `CCC(=O)Nc1nnc(S(N)(=O)=O)s1` [CAI 009], the MIC with N. gonorrhoeae [1] (setting [3]) is 8 µg/mL (≈ 33.9 µM); against N. gonorrhoeae [1] (setting [4]), 16 µg/mL (≈ 67.7 µM); against N. gonorrhoeae [1] (setting [5]), 8 µg/mL (≈ 33.9 µM); against N. gonorrhoeae [1] (setting [6]) it was > 64 µg/mL; against N. gonorrhoeae [1] (setting [7]), 16 µg/mL (≈ 67.7 µM); against N. gonorrhoeae [1] (setting [8]) it was 64 µg/mL (≈ 271 µM).

Take `NS(=O)(=O)c1nnc(NC(=O)CCC2CCCC2)s1` [CAI 0015]: the MIC against N. gonorrhoeae [1] (setting [3]) was 2 µg/mL (≈ 6.57 µM); in the assay with N. gonorrhoeae [1] (setting [4]), 16 µg/mL (≈ 52.6 µM); with N. gonorrhoeae [1] (setting [5]), 1 µg/mL (≈ 3.29 µM); in the assay on N. gonorrhoeae [1] (setting [6]), > 64 µg/mL; against N. gonorrhoeae [1] (setting [7]), 4 µg/mL (≈ 13.1 µM); in the assay with N. gonorrhoeae [1] (setting [8]) it was 64 µg/mL (≈ 210 µM).

As for `CC(C)=CC(=O)Nc1nnc(S(N)(=O)=O)s1` [CAI 0016], the MIC in the assay on N. gonorrhoeae [1] (setting [3]) turned out to be 16 µg/mL (≈ 61 µM); in the assay on N. gonorrhoeae [1] (setting [4]), 64 µg/mL (≈ 244 µM); with N. gonorrhoeae [1] (setting [5]), 16 µg/mL (≈ 61 µM); in the assay with N. gonorrhoeae [1] (setting [6]) it was 32 µg/mL (≈ 122 µM); in the assay on N. gonorrhoeae [1] (setting [7]), 32 µg/mL (≈ 122 µM); against N. gonorrhoeae [1] (setting [8]) it was 64 µg/mL (≈ 244 µM).

With `CC(C)C(=O)Nc1nnc(S(N)(=O)=O)s1` [CAI 0011], the MIC is 16 µg/mL (≈ 63.9 µM) in the assay with N. gonorrhoeae [1] (setting [3]); 32 µg/mL (≈ 128 µM) in the assay on N. gonorrhoeae [1] (setting [4]); 16 µg/mL (≈ 63.9 µM) in the assay on N. gonorrhoeae [1] (setting [5]); > 64 µg/mL against N. gonorrhoeae [1] (setting [6]); 8 µg/mL (≈ 32 µM) in the assay with N. gonorrhoeae [1] (setting [7]); 64 µg/mL (≈ 256 µM) in the assay on N. gonorrhoeae [1] (setting [8]).

`NS(=O)(=O)c1nnc(NC(=O)CC2CC2)s1` [CAI 0040]: the MIC in the assay on ATCC strain 700825 (ATCC700825, In CO2) stood at 32 µg/mL (≈ 122 µM); in the assay on ATCC strain 700825 (ATCC700825, In air) it was 16 µg/mL (≈ 61 µM).

As for `CC(C)(C)CC(=O)Nc1nnc(S(N)(=O)=O)s1` [CAI 0028], the MIC in the assay with N. gonorrhoeae [1] (setting [3]) was 8 µg/mL (≈ 28.7 µM); with N. gonorrhoeae [1] (setting [4]) it was 32 µg/mL (≈ 115 µM); in the assay with N. gonorrhoeae [1] (setting [5]) it was 16 µg/mL (≈ 57.5 µM); against N. gonorrhoeae [1] (setting [6]) it was 64 µg/mL (≈ 230 µM); in the assay on N. gonorrhoeae [1] (setting [7]), 32 µg/mL (≈ 115 µM); with N. gonorrhoeae [1] (setting [8]) it was 64 µg/mL (≈ 230 µM).

Take `NS(=O)(=O)c1nnc(NC(=O)CCC2CCCCC2)s1` [CAI 0019]: the MIC is 4 µg/mL (≈ 12.6 µM) against N. gonorrhoeae [1] (setting [3]); 64 µg/mL (≈ 201 µM) against N. gonorrhoeae [1] (setting [4]); 1 µg/mL (≈ 3.14 µM) in the assay with N. gonorrhoeae [1] (setting [5]); 64 µg/mL (≈ 201 µM) with N. gonorrhoeae [1] (setting [6]); 2 µg/mL (≈ 6.28 µM) in the assay with N. gonorrhoeae [1] (setting [7]); > 64 µg/mL in the assay with N. gonorrhoeae [1] (setting [8]). The MIC with ATCC strain 700825 (ATCC700825, In CO2) turned out to be 32 µg/mL (≈ 100 µM); in the assay on ATCC strain 700825 (ATCC700825, In air), 4 µg/mL (≈ 12.6 µM).
